Experimental data taken from patent US20060069132A1, “Azolecarboxamide herbicides” (priority 2004, published 2006).

Key:
lambsquarters = test: Test C pre-/postemergence herbicide test; type: in vivo, Chenopodium album
How it was run: (§1)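 Visual ratings on a 0–100 scale (100 = complete control) made versus untreated controls after 12 to 14 greenhouse days. Test chemicals, formulated in surfactant-containing non-phytotoxic solvent, applied preemergence to planted seeds or postemergence to 1- to 4-leaf plants (2 to 18 cm).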

barnyardgrass = test: Test C flooded paddy test; type: in vivo, Echinochloa crus-galli; details: for Plant response rating, Barnyardgrass: 500 g ai/ha, visual rating after 12 to 14 days
How it was run: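 After a postemergence application at 1 to 4 leaves (plants 2–18 cm high), or at 2 leaves for barnyardgrass in flooded paddy, plants stayed in the greenhouse for 12 to 14 days. Damage was then judged visually relative to control plants, with 100 indicating complete control.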

velvetleaf = test: Test C pre-/postemergence herbicide test; type: in vivo, Abutilon theophrasti
How it was run: as §1

johnsongrass = test: Test C pre-/postemergence herbicide test; type: in vivo, Sorghum halepense
How it was run: as §1

[1] = test system: smallflower umbrella sedge; test: Test C flooded paddy test; type: in vivo, Cyperus difformis; details: for Plant response rating, Sedge, Umbrella: 500 g ai/ha, visual rating after 12 to 14 days
morningglory = test: Test C pre-/postemergence herbicide test; type: in vivo, Ipomoea coccinea; set-up: key to Plant response rating, Morningglory: 0 = no effect, 100 = complete control
How it was run: as §1

rice = test: Test B pre-/postemergence herbicide test; type: in vivo, Oryza sativa; details: preemergence
How it was run: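 Herbicidal effect was judged by eye on a 0–100 scale after plants stood 13 to 15 days in the greenhouse following pre- or postemergence treatment with surfactant-containing formulations.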

[2] = 62 g ai/ha, preemergence, scale 0 to 100
[3] = 125 g ai/ha, scale 0 (no effect) to 100 (complete control), visual, 12 to 14 days, preemergence
[4] = 250 g ai/ha, scale 0-100, preemergence
[5] = 500 g ai/ha, scale 0 to 100 (0 no effect, 100 complete control), visual, 12 to 14 days, preemergence
[6] = 62 g ai/ha, scale 0 to 100 (0 no effect, 100 complete control)
[7] = 125 g ai/ha, scale 0 to 100 (0 no effect, 100 complete control)
[8] = 250 g ai/ha, scale of 0 to 100, 0 is no effect, 100 is complete control
[9] = scale 0 to 100 (0 no effect, 100 complete control)
[10] = 125 g ai/ha, 0 = no effect, 100 = complete control
[11] = 500 g ai/ha, visual rating, 0 = no effect, 100 = complete control
[12] = Preemergence, 500 g ai/ha, scale 0 to 100, 0 no effect, 100 complete control
[13] = 125 g ai/ha, scale of 0 to 100, 0 is no effect, 100 is complete control
[14] = 125 g ai/ha, 0 to 100 scale, 0 is no effect, 100 is complete control
[15] = Postemergence, 250 g ai/ha, scale 0 to 100, 0 no effect, 100 complete control
[16] = postemergence, 125 g ai/ha, scale 0 to 100
[17] = postemergence, 62 g ai/ha, scale 0 to 100
[18] = 31 g ai/ha, preemergence, scale 0 to 100

## CCn1nc(C2(C)CC2)cc1C(=O)Nc1cccc(C(=O)N2CC=CC2)c1 [Compound 304]
lambsquarters; [2]
  Plant response rating, Lambsquarters: 0
lambsquarters; [3]
  Plant response rating, Lambsquarters: 100
lambsquarters; [4]
  Plant response rating, Lambsquarters: 100
lambsquarters; [5]
  Plant response rating, Lambsquarters: 100
barnyardgrass; [6]
  Barnyardgrass plant response rating: 40
barnyardgrass; [7]
  Barnyardgrass plant response rating: 50
barnyardgrass; [8]
  Barnyardgrass plant response rating: 85
barnyardgrass; [9]
  Plant response rating, Barnyardgrass: 95
velvetleaf; [2]
  Plant response rating, Velvetleaf: 0
velvetleaf; [5]
  Plant response rating, Velvetleaf: 60
johnsongrass; [2]
  Plant response rating, Johnsongrass: 0
johnsongrass; [3]
  Plant response rating, Johnsongrass: 60
johnsongrass; [4]
  Plant response rating, Johnsongrass: 70
johnsongrass; [5]
  Plant response rating, Johnsongrass: 80
[1]; 62 g ai/ha, scale 0 to 100
  Sedge, Umbrella plant response rating: 75
[1]; [7]
  Sedge, Umbrella plant response rating: 90
[1]; [8]
  Sedge, Umbrella plant response rating: 95
[1]; [9]
  Plant response rating, Sedge, Umbrella: 95
morningglory; [2]
  Plant response rating, Morningglory: 0
morningglory; [3]
  Plant response rating, Morningglory: 10
morningglory; [4]
  Plant response rating, Morningglory: 10
morningglory; [5]
  Plant response rating, Morningglory: 10
rice; [10]
  Rice plant response rating (0 to 100 scale): 0
rice; [11]
  Plant response rating, Rice: 20

## CCN1N=C(C(C)(C)C)CC1C(=O)Nc1cc(C(=O)N2CCCC2)ccc1F (racemic) [Compound 309]
lambsquarters; [2]
  Plant response rating, Lambsquarters: 100
lambsquarters; [3]
  Plant response rating, Lambsquarters: 100
lambsquarters; [4]
  Plant response rating, Lambsquarters: 100
lambsquarters; [5]
  Plant response rating, Lambsquarters: 100
barnyardgrass; [6]
  Barnyardgrass plant response rating: 50
barnyardgrass; [7]
  Barnyardgrass plant response rating: 60
barnyardgrass; [8]
  Barnyardgrass plant response rating: 85
barnyardgrass; [9]
  Plant response rating, Barnyardgrass: 90
velvetleaf; [2]
  Plant response rating, Velvetleaf: 5
velvetleaf; [4]
  Plant response rating, Velvetleaf: 75
velvetleaf; [5]
  Plant response rating, Velvetleaf: 100
johnsongrass; [2]
  Plant response rating, Johnsongrass: 75
johnsongrass; [3]
  Plant response rating, Johnsongrass: 80
johnsongrass; [4]
  Plant response rating, Johnsongrass: 95
johnsongrass; [5]
  Plant response rating, Johnsongrass: 100
[1]; 62 g ai/ha, scale 0 to 100
  Sedge, Umbrella plant response rating: 80
[1]; [7]
  Sedge, Umbrella plant response rating: 80
[1]; [8]
  Sedge, Umbrella plant response rating: 80
[1]; [9]
  Plant response rating, Sedge, Umbrella: 80
morningglory; [2]
  Plant response rating, Morningglory: 0
morningglory; [3]
  Plant response rating, Morningglory: 5
morningglory; [4]
  Plant response rating, Morningglory: 5
morningglory; [5]
  Plant response rating, Morningglory: 40
rice; [10]
  Rice plant response rating (0 to 100 scale): 70
rice; [11]
  Plant response rating, Rice: 90

## CCn1nc(C(C)(C)C)cc1C(=O)Nc1cc(C#N)ccc1F [Compound 140]
lambsquarters; 62 g ai/ha, preemergence
  Plant response rating (0 = no effect, 100 = complete control), Lambsquarters: 75
lambsquarters; [3]
  Plant response rating, Lambsquarters: 85
lambsquarters; [12]
  Lambsquarters plant response rating: 100
barnyardgrass; [6]
  Barnyardgrass plant response rating: 0
barnyardgrass; [13]
  Barnyardgrass plant response rating: 0
barnyardgrass; [8]
  Barnyardgrass plant response rating: 0
barnyardgrass; [9]
  Plant response rating, Barnyardgrass: 15
velvetleaf; [3]
  Plant response rating, Velvetleaf: 0
velvetleaf; [12]
  Velvetleaf plant response rating: 20
johnsongrass; 62 g ai/ha, preemergence
  Plant response rating (0 = no effect, 100 = complete control), Johnsongrass: 0
johnsongrass; [3]
  Plant response rating, Johnsongrass: 45
johnsongrass; [12]
  Johnsongrass plant response rating: 75
[1]; [6]
  Sedge, Umbrella plant response rating: 0
[1]; [7]
  Sedge, Umbrella plant response rating: 20
[1]; [8]
  Sedge, Umbrella plant response rating: 45
[1]; [9]
  Plant response rating, Sedge, Umbrella: 65
morningglory; 62 g ai/ha, preemergence
  Plant response rating (0 = no effect, 100 = complete control), Morningglory: 0
morningglory; [3]
  Plant response rating, Morningglory: 0
morningglory; [12]
  Morningglory plant response rating: 0
rice; 500 g ai/ha, visual rating 0-100, 0 no effect, 100 complete control
  Plant response rating, Rice: 70
rice; [14]
  Plant response rating, Rice: 0

## CCn1nc(C(C)(C)C)cc1C(=O)Nc1cccc(C(=O)OC)c1 [Compound 81]
lambsquarters; [15]
  Plant response rating, Lambsquarters: 5
lambsquarters; [16]
  Plant response rating, Lambsquarters: 5
lambsquarters; [17]
  Plant response rating, Lambsquarters: 5
barnyardgrass; [6]
  Barnyardgrass plant response rating: 0
barnyardgrass; [13]
  Barnyardgrass plant response rating: 0
barnyardgrass; [8]
  Barnyardgrass plant response rating: 0
barnyardgrass; [9]
  Plant response rating, Barnyardgrass: 30
velvetleaf; [15]
  Plant response rating, Velvetleaf: 60
velvetleaf; [16]
  Plant response rating, Velvetleaf: 55
velvetleaf; [17]
  Plant response rating, Velvetleaf: 55
johnsongrass; [15]
  Plant response rating, Johnsongrass: 5
johnsongrass; [16]
  Plant response rating, Johnsongrass: 0
johnsongrass; [17]
  Plant response rating, Johnsongrass: 0
[1]; [6]
  Sedge, Umbrella plant response rating: 70
[1]; [13]
  Sedge, Umbrella plant response rating: 70
[1]; [8]
  Sedge, Umbrella plant response rating: 80
[1]; [9]
  Plant response rating, Sedge, Umbrella: 80
morningglory; [15]
  Plant response rating, Morningglory: 10
morningglory; [16]
  Plant response rating, Morningglory: 10
morningglory; [17]
  Plant response rating, Morningglory: 10
rice; [14]
  Plant response rating, Rice: 0

## CCC(=NO)c1cccc(NC(=O)c2cc(C(C)(C)C)nn2C)c1 [Compound 118]
lambsquarters; [18]
  Plant response rating, Lambsquarters: 50
lambsquarters; 62 g ai/ha, preemergence
  Plant response rating (0 = no effect, 100 = complete control), Lambsquarters: 50
lambsquarters; [3]
  Plant response rating, Lambsquarters: 60
barnyardgrass; [6]
  Barnyardgrass plant response rating: 0
barnyardgrass; [13]
  Barnyardgrass plant response rating: 20
barnyardgrass; [8]
  Barnyardgrass plant response rating: 20
barnyardgrass; [9]
  Plant response rating, Barnyardgrass: 50
velvetleaf; [18]
  Plant response rating, Velvetleaf: 0
velvetleaf; [3]
  Plant response rating, Velvetleaf: 40
johnsongrass; [18]
  Plant response rating, Johnsongrass: 30
johnsongrass; 62 g ai/ha, preemergence
  Plant response rating (0 = no effect, 100 = complete control), Johnsongrass: 40
johnsongrass; [3]
  Plant response rating, Johnsongrass: 100
[1]; [6]
  Sedge, Umbrella plant response rating: 0
[1]; [13]
  Sedge, Umbrella plant response rating: 50
[1]; [8]
  Sedge, Umbrella plant response rating: 50
[1]; [9]
  Plant response rating, Sedge, Umbrella: 50
morningglory; [18]
  Plant response rating, Morningglory: 0
morningglory; 62 g ai/ha, preemergence
  Plant response rating (0 = no effect, 100 = complete control), Morningglory: 20
morningglory; [3]
  Plant response rating, Morningglory: 30
rice; [14]
  Plant response rating, Rice: 0
